Assay type in all cases: cell-based, human
The subject of assay [1] is Bax. The experiment in a line: ELISA of Bax level in MCF-7 cells. Conditions: for fold increase of Bax level: MCF-7, vs control; for Bax: MCF-7 cells treated at IC50, 48 h, control 38.3 ± 2.2. The method, then: (§1) Homogeneously, both conjugates were able to decrease the level of the anti-apoptotic Bcl-2 protein by 2.12-, and 1.7-fold, respectively (Table 3). As a more analytical variable, the Bax/Bcl-2 ratio was verified to be amplified by conjugates 6e and 6f, 18- and 12-fold, respectively.
(§2) Assessment of the levels for the proapoptotic markers (Bax, caspase-3, and p53) as well as the antiapoptotic marker (Bcl-2) was carried out through the use of ELISA colorimetric kits in accordance with the manufacturer’s instructions, as mentioned earlier. In addition, the pro-apoptotic potential of indoles 6e and 6f towards MCF-7 cells was evaluated through an FITC Annexin V apoptosis detection kit by flow cytometry, in accordance with the manufacturer’s protocol and referring to the reported procedures.
(§3) The levels of the pro-apoptotic markers (Bax, caspase-3 and p53) as well as the anti-apoptotic marker Bcl-2 were determined using ELISA colorimetric kits per the manufacturer’s instructions. Breast cancer MCF-7 cells were cultured as a monolayer in T-25 flasks and were seeded to attain 30% confluency prior to treatment. Cells were then […]
(§4) of treatment, cells were collected via trypsinization and centrifuged at 10,000 rpm. The pellet was then rinsed with PBS and lysed in RIPA lysis buffer at 4 °C for 45 min, then centrifuged at 14,000 rpm for 20 min to remove the cellular debris. Lysates were then collected and stored at −80 °C for later protein determination using Pierce BCA Protein Assay Kit according to manufacturer’s recommendations.
(§5) The cell lysate was diluted 10 times, and 100 μL ([…]) was added to the wells of four separate microtiter plates for the four ELISA kits that were pre-coated with primary antibodies specific to Bax, Bcl-2, caspase-3 and p53 proteins, respectively. A secondary biotin-linked antibody specific to the protein captured by the primary antibody was further added to bind the captured protein, forming a “sandwich” of specific antibodies around the desired protein in the cell lysate. The streptavidin-HRP complex was then used to bind the biotin-linked secondary antibody through its streptavidin portion. The HRP domain reacted with the added TMB substrate to form a colored product that measured at 450 nm by a plate reader ChroMate-4300 after the reaction was terminated via the addition of stop solution. […]
(§6) Cells were then rinsed in binding buffer and resuspended in 150
(§7) μL of binding buffer with the addition of 1 μL of DAPI (1 μg/μL in PBS). […]
For orientation: ELISA stands for enzyme-linked immunosorbent assay.

The subject of assay [2] is Bcl-2. Nature of the assay: ELISA of Bcl-2 level in MCF-7 cells. Conditions: for fold decrease of Bcl-2 level: MCF-7, vs control; for Bcl-2: MCF-7 cells treated at IC50, 48 h, control 4.65 ± 0.23. The protocol: as §1, §2, §3, §4, §5, §6, §7
Assay [3] has as its system Bax/Bcl-2. Nature of the assay: Bax/Bcl-2 ratio in MCF-7 cells. Conditions: for fold increase of Bax/Bcl-2 ratio: MCF-7, vs control; for Bax/Bcl-2: MCF-7 cells treated at IC50, control 8.2. The protocol:
as §1, §2, §3, §4, §5, §6, §7

Assay [4] has as its system caspase-3. The experiment in a line: ELISA of active caspase-3 level in MCF-7 cells. Conditions: for fold increase of caspase-3 level: MCF-7, in comparison to the control; for Caspase-3: active caspase-3, MCF-7 cells treated at IC50, 48 h, control 35.92 ± 1.8. The method, then: In addition, their influence on the level of caspase-3 and p53 was estimated in the MCF-7 cell line.
as §2, §3, §4, §5, §6, §7

Assay [5] concerns MCF-7 cells. Nature of the assay: Annexin V-FITC apoptosis assay. Conditions: for fold increase of entire apoptosis percentage: MCF-7, in comparison to the control (DMSO); for percent of Anx V-FITC positive cells (entire apoptosis): MCF-7 cells treated at IC50. The method, then: Anx V-based flow cytometry assay represents a helpful tactic for determining whether death of cells is attributed to programmed apoptosis or to uncontrolled necrosis.
This clearly verifies that cell death resulting from the anti-proliferative action of the target hybrids was attributable to physiological apoptosis and not to nonspecific necrosis.
Assessment of the levels for the proapoptotic markers (Bax, caspase-3, and p53) as well as the antiapoptotic marker (Bcl-2) was carried out through the use of ELISA colorimetric kits in accordance with the manufacturer’s instructions, as mentioned earlier. In addition, the pro-apoptotic potential of indoles 6e and 6f towards MCF-7 cells was evaluated through an FITC Annexin V apoptosis detection kit by flow cytometry, in accordance with the manufacturer’s protocol and referring to the reported procedures. […]
4. Annexin V-FITC Apoptosis Assay
Phosphatidylserine externalization was assayed using Annexin V-FITC/PI apoptosis detection kit (BD Biosciences, USA) according to the manufacturer’s instructions. Breast cancer MCF-7 cells were cultured to a monolayer then treated with hybrids 6e and 6f at their IC50 concentration. Briefly, cells were then harvested via trypsinization, and rinsed twice in PBS followed by binding buffer. Moreover, cells were re-suspended in 100 μL of binding buffer with the addition of 1 μL of FITC-Annexin V followed by an incubation period of 30 min at 4 °C. Cells were then rinsed in binding buffer and resuspended in 150 μL of binding buffer with the addition of 1 μL of DAPI (1 μg/μL in PBS). Cells were then analyzed using the flow cytometer BD FACS Canto II and the results were interpreted with FlowJo7.6.4 software (Tree Star, Ashland, OR, USA).

Turning to `Cc1ccc2c(c1)/C(=N/NC(=O)c1cc3ccccc3[nH]1)C(=O)N2` [6e], in assay [1], the “fold increase of Bax level” value came to 8.5 fold and the Bax is 325.3 ± 12.1 pg/mg of Total Protein. For the same compound, in assay [2], the “fold decrease of Bcl-2 level” value was found to be 2.12 fold and the Bcl-2 was 2.19 ± 0.10 ng/mg of Total Protein. In assay [3], the “fold increase of Bax/Bcl-2 ratio” value is on record as 18 fold and the Bax/Bcl-2 worked out at 148.5. In addition, in assay [4], the “fold increase of caspase-3 level” value came out at 11.45 fold and the Caspase-3 came out at 411.70 ± 12.3 pg/mg. Besides, in assay [5], the “fold increase of entire apoptosis percentage” value was 33.75 fold and the “percent of Anx V-FITC positive cells (entire apoptosis)” value came to 29.7%.

`COc1ccc2c(c1)/C(=N/NC(=O)c1cc3ccccc3[nH]1)C(=O)N2` [6f]: in assay [1], the “fold increase of Bax level” value came out at 7 fold and the Bax is listed as 268.7 ± 9.5 pg/mg of Total Protein. In assay [2], the “fold decrease of Bcl-2 level” value is 1.7 fold and the Bcl-2 is reported as 2.73 ± 0.13 ng/mg of Total Protein. For the same compound, in assay [3], the “fold increase of Bax/Bcl-2 ratio” value worked out at 12 fold and the Bax/Bcl-2 is on record as 98.6. In assay [4], the “fold increase of caspase-3 level” value worked out at 10.1 fold and the Caspase-3 is listed as 364.15 ± 14.8 pg/mg. In addition, in assay [5], the “fold increase of entire apoptosis percentage” value worked out at 28.60 fold and the “percent of Anx V-FITC positive cells (entire apoptosis)” value is given as 25.17%.

The values are drawn from paper PMC7248897, “Synthesis, Biological Evaluation and In Silico Studies of Certain Oxindole–Indole Conjugates as Anticancer CDK Inhibitors” (Molecules, 2020).
